Experiments:
[1] = Liquid
[2] = refractive index (Na D-line) (dimensionless); settings: 299.15 K; 101.33 kPa; Liquid; Standard Abbe refractometry

COC=O [methyl methanoate]
Settings | mass density [kg/m3]
[1], 299.15 K, 101.33 kPa | 964.78

[1]
Settings | vapor or sublimation pressure [kPa]
301.23 K | 88.7
301.42 K | 89.37
301.78 K | 90.67
302.15 K | 91.98
302.53 K | 93.31
302.89 K | 94.64
303.41 K | 95.98
303.77 K | 97.36
304.13 K | 98.69
304.44 K | 99.97
304.79 K | 101.32
304.83 K | 101.39
305.21 K | 102.89
305.51 K | 104.06
305.85 K | 105.38
306.2 K | 106.72
306.54 K | 108.06
306.84 K | 109.39
307.2 K | 110.77
307.54 K | 112.13
307.85 K | 113.44
308.13 K | 114.75
308.47 K | 116.1
308.81 K | 117.47
309.15 K | 118.77
309.43 K | 120.12
309.72 K | 121.43
310.03 K | 122.74
310.33 K | 124.08
310.64 K | 125.47
310.92 K | 126.77
311.19 K | 128.14
311.48 K | 129.44
311.78 K | 130.75
312.06 K | 132.09
312.37 K | 133.48
312.67 K | 134.81
312.9 K | 136.09
313.17 K | 137.42
313.45 K | 138.75
313.74 K | 139.83
314.01 K | 141.42
314.3 K | 142.78
314.37 K | 143.32
314.6 K | 144.13
314.63 K | 144.65
314.88 K | 145.45
314.93 K | 145.65
315.12 K | 146.74
315.18 K | 147.03
315.52 K | 148.79
315.56 K | 149.41
315.77 K | 150.23
316 K | 151.48
316.06 K | 152.08
316.23 K | 152.97
316.47 K | 154.04
316.57 K | 154.75
316.71 K | 155.22
316.95 K | 156.54
317.05 K | 157.42
317.17 K | 157.73
317.36 K | 158.92
317.4 K | 159.14
317.64 K | 160.45
317.88 K | 161.72
318 K | 162.65
318.34 K | 164.18
318.51 K | 165.32
318.68 K | 166.44
319.07 K | 168.3
319.37 K | 170
319.45 K | 170.76
319.67 K | 171.98
319.93 K | 173.32
320.22 K | 174.76
320.34 K | 175.82
320.65 K | 177.38
320.78 K | 178.57
321.04 K | 180.01
321.34 K | 181.7
321.46 K | 182.37
321.72 K | 184.02
321.94 K | 185.46
322.2 K | 186.83

Settings | refractive index
[2] | 1.3402

Reference: the NIST ThermoML archive (doi:10.1021/je034290l)
